# Experimental data as given in patent US20110166191A1, “3-(2-amino-ethyl)-5-(3-cyclohexyl-propylidene)-thiazolidine-2,4-dione and its derivatives as multiple signaling pathway inhibitors and for the treatment of cancer” (priority 2010, published 2011).
# Columns and labels:
# 786-0 = test: NCI 60 cell line panel screening; format: cell-based; settings: Homo sapiens, Renal Cancer, read-out: Growth Inhibition (GI50)
# Text: (§1) Compound 3-(2-aminoethyl)-5-(3-cyclohexylpropylidene)thiazolidine-2,4-dione was screened at five concentrations in National Cancer Institute (NCI) 60-cell line panel according to NCI's protocol for growth inhibition.
# ACHN = test: NCI 60 cell line panel screening; format: cell-based; settings: Homo sapiens, Renal Cancer, read-out: Growth Inhibition (GI50)
# Text: as §1
# BT-549 = test: NCI 60 cell line panel screening; format: cell-based; settings: Homo sapiens, Breast Cancer, read-out: Growth Inhibition (GI50)
# Text: as §1
# CCRF-CEM = test: NCI 60 cell line panel screening; format: cell-based; settings: Homo sapiens, Leukemia, read-out: Growth Inhibition (GI50)
# Text: as §1
# COLO 205 = test: NCI 60 cell line panel screening; format: cell-based; settings: Homo sapiens, Colon Cancer, read-out: Growth Inhibition (GI50)
# Text: as §1
# DU-145 = test: NCI 60 cell line panel screening; format: cell-based; settings: Homo sapiens, Prostate Cancer, read-out: Growth Inhibition (GI50)
# Text: as §1
# EKVX = test: NCI 60 cell line panel screening; format: cell-based; settings: Homo sapiens, Non-Small Cell Lung Cancer, read-out: Growth Inhibition (GI50)
# Text: as §1
# HCC-2998 = test: NCI 60 cell line panel screening; format: cell-based; settings: Homo sapiens, Colon Cancer, read-out: Growth Inhibition (GI50)
# Text: as §1
# HCT-15 = test: NCI 60 cell line panel screening; format: cell-based; settings: Homo sapiens, Colon Cancer, read-out: Growth Inhibition (GI50)
# Text: as §1
# HL-60(TB) = test: NCI 60 cell line panel screening; format: cell-based; settings: Homo sapiens, Leukemia, read-out: Growth Inhibition (GI50)
# Text: as §1
# HOP-92 = test: NCI 60 cell line panel screening; format: cell-based; settings: Homo sapiens, Non-Small Cell Lung Cancer, read-out: Growth Inhibition (GI50)
# Text: as §1
# HS 578T = test: NCI 60 cell line panel screening; format: cell-based; settings: Homo sapiens, Breast Cancer, read-out: Growth Inhibition (GI50)
# Text: as §1
# HT29 = test: NCI 60 cell line panel screening; format: cell-based; settings: Homo sapiens, HT-29, Colon Cancer, read-out: Growth Inhibition (GI50)
# Text: as §1
# KM12 = test: NCI 60 cell line panel screening; format: cell-based; settings: Homo sapiens, Colon Cancer, read-out: Growth Inhibition (GI50)
# Text: as §1
# LOX IMVI = test: NCI 60 cell line panel screening; format: cell-based; settings: Homo sapiens, Melanoma, read-out: Growth Inhibition (GI50)
# Text: as §1
# M14 = test: NCI 60 cell line panel screening; format: cell-based; settings: Homo sapiens, Melanoma, read-out: Growth Inhibition (GI50)
# Text: as §1
# MALME-3M = test: NCI 60 cell line panel screening; format: cell-based; settings: Homo sapiens, Melanoma, read-out: Growth Inhibition (GI50)
# Text: as §1
# MDA-MB-231/ATCC = test: NCI 60 cell line panel screening; format: cell-based; settings: Homo sapiens, Breast Cancer, read-out: Growth Inhibition (GI50)
# Text: as §1
# MDA-MB-435 = test: NCI 60 cell line panel screening; format: cell-based; settings: Homo sapiens, Melanoma, read-out: Growth Inhibition (GI50)
# Text: as §1
# MDA-MB-468 = test: NCI 60 cell line panel screening; format: cell-based; settings: Homo sapiens, Breast Cancer, read-out: Growth Inhibition (GI50)
# Text: as §1
# MOLT-4 = test: NCI 60 cell line panel screening; format: cell-based; settings: Homo sapiens, Leukemia, read-out: Growth Inhibition (GI50)
# Text: as §1
# NCI-522 = test: NCI 60 cell line panel screening; format: cell-based; settings: Non-Small Cell Lung Cancer, read-out: Growth Inhibition (GI50)
# Text: as §1
# NCI-H226 = test: NCI 60 cell line panel screening; format: cell-based; settings: Homo sapiens, Non-Small Cell Lung Cancer, read-out: Growth Inhibition (GI50)
# Text: as §1
# NCI-H23 = test: NCI 60 cell line panel screening; format: cell-based; settings: Homo sapiens, Non-Small Cell Lung Cancer, read-out: Growth Inhibition (GI50)
# Text: as §1
# NCI-H322M = test: NCI 60 cell line panel screening; format: cell-based; settings: Homo sapiens, Non-Small Cell Lung Cancer, read-out: Growth Inhibition (GI50)
# Text: as §1
# NCI-H460 = test: NCI 60 cell line panel screening; format: cell-based; settings: Homo sapiens, Non-Small Cell Lung Cancer, read-out: Growth Inhibition (GI50)
# Text: as §1
# NCI/ADR-RES = test: NCI 60 cell line panel screening; format: cell-based; settings: Homo sapiens, Ovarian Cancer, read-out: Growth Inhibition (GI50)
# Text: as §1
# OVCAR-3 = test: NCI 60 cell line panel screening; format: cell-based; settings: Homo sapiens, Ovarian Cancer, read-out: Growth Inhibition (GI50)
# Text: as §1
# OVCAR-4 = test: NCI 60 cell line panel screening; format: cell-based; settings: Homo sapiens, Ovarian Cancer, read-out: Growth Inhibition (GI50)
# Text: as §1
# OVCAR-5 = test: NCI 60 cell line panel screening; format: cell-based; settings: Homo sapiens, Ovarian Cancer, read-out: Growth Inhibition (GI50)
# Text: as §1
# OVCAR-8 = test: NCI 60 cell line panel screening; format: cell-based; settings: Homo sapiens, Ovarian Cancer, read-out: Growth Inhibition (GI50)
# Text: as §1
# PC-3 = test: NCI 60 cell line panel screening; format: cell-based; settings: Homo sapiens, Prostate Cancer, read-out: Growth Inhibition (GI50)
# Text: as §1
# RPMI-8226 = test: NCI 60 cell line panel screening; format: cell-based; settings: Homo sapiens, Leukemia, read-out: Growth Inhibition (GI50)
# Text: as §1
# RXF-393 = test: NCI 60 cell line panel screening; format: cell-based; settings: Homo sapiens, Renal Cancer, read-out: Growth Inhibition (GI50)
# Text: as §1
# SF-268 = test: NCI 60 cell line panel screening; format: cell-based; settings: Homo sapiens, CNS Cancer, read-out: Growth Inhibition (GI50)
# Text: as §1
# SF-295 = test: NCI 60 cell line panel screening; format: cell-based; settings: Homo sapiens, CNS Cancer, read-out: Growth Inhibition (GI50)
# Text: as §1
# SK-MEL-28 = test: NCI 60 cell line panel screening; format: cell-based; settings: Homo sapiens, Melanoma, read-out: Growth Inhibition (GI50)
# Text: as §1
# SK-OV-3 = test: NCI 60 cell line panel screening; format: cell-based; settings: Homo sapiens, Ovarian Cancer, read-out: Growth Inhibition (GI50)
# Text: as §1
# SN12C = test: NCI 60 cell line panel screening; format: cell-based; settings: Homo sapiens, Renal Cancer, read-out: Growth Inhibition (GI50)
# Text: as §1
# SNB-19 = test: NCI 60 cell line panel screening; format: cell-based; settings: Homo sapiens, CNS Cancer, read-out: Growth Inhibition (GI50)
# Text: as §1
# SNB-75 = test: NCI 60 cell line panel screening; format: cell-based; settings: Homo sapiens, CNS Cancer, read-out: Growth Inhibition (GI50)
# Text: as §1
# U251 = test: NCI 60 cell line panel screening; format: cell-based; settings: Homo sapiens, U-251, CNS Cancer, read-out: Growth Inhibition (GI50)
# Text: as §1
# UO-31 = test: NCI 60 cell line panel screening; format: cell-based; settings: Homo sapiens, Renal Cancer, read-out: Growth Inhibition (GI50)
# Text: as §1
# Toxicity studies in mice = format: in vivo; settings: B6C3F1 mice, orally 30 mg/kg, 50 mg/kg and 80 mg/kg, 21 days
# Description: Female B6C3F1 mice (12/group) were given example 4 orally at 30 mg/kg, 50 mg/kg and 80 mg/kg dosage or example 820 mg/kg orally for 21 days.
structure (smiles),measurement,setting,value
"NCCN1C(=O)S/C(=C\CCC2CCCCC2)C1=O [Example 4, 3-(2-aminoethyl)-5-(3-cyclohexylpropylidene)thiazolidine-2,4-dione]",GI50,786-0,1720 nM
same,GI50,ACHN,1840 nM
same,GI50,BT-549,2050 nM
same,GI50,CCRF-CEM,2500 nM
same,GI50,COLO 205,2190 nM
same,GI50,DU-145,1760 nM
same,GI50,EKVX,2530 nM
same,GI50,HCC-2998,1780 nM
same,GI50,HCT-15,2470 nM
same,GI50,HL-60(TB),2040 nM
same,GI50,HOP-92,5410 nM
same,GI50,HS 578T,2490 nM
same,GI50,HT29,2040 nM
same,GI50,KM12,1770 nM
same,GI50,LOX IMVI,1400 nM
same,GI50,M14,1680 nM
same,GI50,MALME-3M,1800 nM
same,GI50,MDA-MB-231/ATCC,2080 nM
same,GI50,MDA-MB-435,1850 nM
same,GI50,MDA-MB-468,1860 nM
same,GI50,MOLT-4,2380 nM
same,GI50,NCI-522,1400 nM
same,GI50,NCI-H226,9980 nM
same,GI50,NCI-H23,3080 nM
same,GI50,NCI-H322M,5100 nM
same,GI50,NCI-H460,1950 nM
same,GI50,NCI/ADR-RES,2200 nM
same,GI50,OVCAR-3,1890 nM
same,GI50,OVCAR-4,1600 nM
same,GI50,OVCAR-5,1980 nM
same,GI50,OVCAR-8,1890 nM
same,GI50,PC-3,1910 nM
same,GI50,RPMI-8226,2510 nM
same,GI50,RXF-393,2560 nM
same,GI50,SF-268,2230 nM
same,GI50,SF-295,1730 nM
same,GI50,SK-MEL-28,1770 nM
same,GI50,SK-OV-3,4040 nM
same,GI50,SN12C,2150 nM
same,GI50,SNB-19,4460 nM
same,GI50,SNB-75,4560 nM
same,GI50,U251,1720 nM
same,GI50,UO-31,1560 nM
same,effects on general health and body weight,Toxicity studies in mice,no effects on general health and body weight were observed
